Results from article PMC7031696 (Cell chemical biology, 2019).
Where two headings read alike, the source gives them in different places.

Experiments:
[1] = tested on: Plasmodium falciparum 3D7-A10 parasites; assay: Stage specificity assay (8-h exposure of synchronized stages, IC50^8h); type: cell-based; details: for IC50: Plasmodium falciparum
[2] = tested on: asynchronous 3D7-A10 parasite cultures; assay: Standard 72-h exposure asexual blood stage susceptibility assay (IC50^72h); type: cell-based, Plasmodium falciparum; details: Plasmodium falciparum, 3D7, 72 h, read-out: Overall (72hr assay) Mean IC50 (IC50^72h)
[3] = tested on: 3D7-MR4 trophozoite parasite-infected RBCs; assay: Metabolomic profiling (hydrophilic metabolite changes, UHPLC-MS); type: cell-based, Plasmodium falciparum

COc1cc(-c2nc(-c3ccccc3)c(-c3ccccc3)[nH]2)ccc1OCCN(C)C [MMV027496]
Ratio lowest IC50 8hr/IC50 72hr ([1]; 3D7-A10): 1.9
IC50 ([1]; 3D7, read-out: Early rings Mean IC50 (IC50^8h), 8-h exposure 0–8 hr, 3D7-A10, survival at 60 h): 2760 nM
IC50 ([1]; 3D7, read-out: Early trophozoites Mean IC50 (IC50^8h), 8-h exposure 16–24 hr, 3D7-A10, survival at 60 h): 168 nM
IC50 ([1]; 3D7, read-out: Late rings Mean IC50 (IC50^8h), 8-h exposure 8–16 hr, 3D7-A10, survival at 60 h): 878 nM
IC50 ([1]; 3D7, read-out: Late trophozoites Mean IC50 (IC50^8h), 8-h exposure 24–32 hr, 3D7-A10, survival at 60 h): 199 nM
IC50 ([1]; 3D7, read-out: Schizonts Mean IC50 (IC50^8h), 8-h exposure 32–40 hr, 3D7-A10, survival at 60 h): 4340 nM
Stage of peak activity (Figure 6) ([1]; period when the parasite was most susceptible (lowest IC50^8h)): trophozoites
Peak Activity (Table S1) ([1]; stage(s) with the lowest IC50^8h): Trophs
IC50 [2]: 89.7 nM
Log2(fold changes) 3-phosphoglycerate ([3]; metabolite 3-phosphoglycerate, log2 fold change): 0.0073
Log2(fold changes) 4-Pyridoxic acid ([3]; metabolite 4-Pyridoxic acid, log2 fold change): -0.0867
Log2(fold changes) 4-aminobutyrate ([3]; metabolite 4-aminobutyrate, log2 fold change): -0.1160
Log2(fold changes) 4-phosphopantetheine ([3]; metabolite 4-phosphopantetheine, log2 fold change): -1.1166
Log2(fold changes) 4-phosphopantothenate ([3]; metabolite 4-phosphopantothenate, log2 fold change): -0.2287
Log2(fold changes) 5-aminopentanoic acid ([3]; metabolite 5-aminopentanoic acid, log2 fold change): 0.0000
Log2(fold changes) 5-methyl-THF ([3]; metabolite 5-methyl-THF, log2 fold change): 0.0000
Log2(fold changes) 5-phosphoribosyl-1-pyrophosphate ([3]; metabolite 5-phosphoribosyl-1-pyrophosphate, log2 fold change): -0.7343
Log2(fold changes) 6-phospho-D-gluconate ([3]; metabolite 6-phospho-D-gluconate, log2 fold change): -0.1141
Log2(fold change) HVDD ([3]; metabolite HVDD): -2.1597
Log2(fold change) Hydroxyisocaproic acid ([3]; metabolite Hydroxyisocaproic acid): 0.0000
Log2(fold change) IDP ([3]; metabolite IDP): 0.0000
Log2(fold change) IMP ([3]; metabolite IMP): 0.0628
Log2(fold change) Inositol ([3]; metabolite Inositol): 0.0000
Log2(fold change) Isopentyl-PP ([3]; metabolite Isopentyl-PP): 0.0000
Log2(fold change) L-arginino-succinate ([3]; metabolite L-arginino-succinate): 0.8581
Log2(fold change) LD ([3]; metabolite LD): -0.0397
Log2(fold change) Myristoyl/tetradecanoyl-CoA ([3]; metabolite Myristoyl/tetradecanoyl-CoA): 0.0000
Log2(fold change) N-Acetyl-L-alanine ([3]; metabolite N-Acetyl-L-alanine): 0.1987
Log2(fold change) N-acetyl-L-ornithine ([3]; metabolite N-acetyl-L-ornithine): 0.0000
Log2(fold change) N-acetyl-glucosamine-1/6-phosphate ([3]; metabolite N-acetyl-glucosamine-1/6-phosphate): -0.0707
Log2(fold change) N-acetyl-glutamate ([3]; metabolite N-acetyl-glutamate): -0.1403
Log2(fold change) N-acetyl-glutamine ([3]; metabolite N-acetyl-glutamine): -1.0773
Log2(fold change) N-carbamoyl-L-aspartate ([3]; metabolite N-carbamoyl-L-aspartate): 0.5722
Log2(fold change) NAD+ ([3]; metabolite NAD+): -0.1059
Log2(fold change) NADH ([3]; metabolite NADH): 2.0630
Log2(fold change) NADP+ ([3]; metabolite NADP+): -0.2030
Log2(fold change) NADPH ([3]; metabolite NADPH): 1.8886
Log2(fold change) O-acetyl-L-serine ([3]; metabolite O-acetyl-L-serine): 0.0000
Log2(fold change) Octoluse 8/1P ([3]; metabolite Octoluse 8/1P): 0.3428
Log2(fold change) Octoluse Bisphosphate ([3]; metabolite Octoluse Bisphosphate): 0.2244
Log2(fold change) PD ([3]; metabolite PD): -1.0804
Log2(fold change) PE ([3]; metabolite PE): -1.1988
Log2(fold change) PEE ([3]; metabolite PEE): -0.8148
Log2(fold change) PEEK ([3]; metabolite PEEK): 0.0064
Log2(fold change) PVNF ([3]; metabolite PVNF): -2.2754
Log2(fold change) Pyroglutamic acid ([3]; metabolite Pyroglutamic acid): 0.2204
Log2(fold change) Pyrophosphate ([3]; metabolite Pyrophosphate): 0.0000
Log2(fold change) Ribose-5-phosphate ([3]; metabolite Ribose-5-phosphate): -0.4834
Log2(fold change) S-adenosyl-L-homocysteine ([3]; metabolite S-adenosyl-L-homocysteine): 0.0314
Log2(fold change) S-adenosyl-L-methioninamine ([3]; metabolite S-adenosyl-L-methioninamine): 0.0000
Log2(fold change) S-adenosyl-L-methionine ([3]; metabolite S-adenosyl-L-methionine): 0.0000
Log2(fold change) S-methyl-5'-thioadenosine ([3]; metabolite S-methyl-5'-thioadenosine): -0.0546
Log2(fold change) SD ([3]; metabolite SD): -0.8375
Log2(fold change) SDL ([3]; metabolite SDL): -2.4484
Log2(fold change) SID ([3]; metabolite SID): 0.0000
Log2(fold change) Sedoheptulose bisphosphate ([3]; metabolite Sedoheptulose bisphosphate): 0.5967
Log2(fold change) Thiamine pyrophosphate ([3]; metabolite Thiamine pyrophosphate): 0.1905
Log2(fold changes) UDP-D-glucose ([3]; metabolite UDP-D-glucose, log2 fold change): 0.0680
Log2(fold changes) UDP-D-glucuronate ([3]; metabolite UDP-D-glucuronate, log2 fold change): -0.0322
Log2(fold changes) UDP-N-acetyl-glucosamine ([3]; metabolite UDP-N-acetyl-glucosamine, log2 fold change): -0.0747
Log2(fold changes) UDP ([3]; metabolite UDP, log2 fold change): -0.5781
Log2(fold changes) UMP ([3]; metabolite UMP, log2 fold change): 0.0423
Log2(fold changes) UTP ([3]; metabolite UTP, log2 fold change): -0.1765
Log2(fold change) hydroxyphenylpyruvate ([3]; metabolite hydroxyphenylpyruvate): 0.0000
Log2(fold change) hydroxyproline/Aminolevulinate ([3]; metabolite hydroxyproline/Aminolevulinate): -0.0266
Log2(fold change) hypoxanthine ([3]; metabolite hypoxanthine): 0.1428
Log2(fold change) indole ([3]; metabolite indole): 0.0089
Log2(fold change) inosine ([3]; metabolite inosine): -0.2181
Log2(fold change) isoleucine ([3]; metabolite isoleucine): 0.0175
Log2(fold change) lactate ([3]; metabolite lactate): -0.1982
Log2(fold change) leucine ([3]; metabolite leucine): -0.1115
Log2(fold change) lysine ([3]; metabolite lysine): 0.0000
Log2(fold change) malate ([3]; metabolite malate): -0.3708
Log2(fold change) maleic acid ([3]; metabolite maleic acid): -0.2294
Log2(fold change) methionine ([3]; metabolite methionine): 0.2631
Log2(fold change) myo-inositol ([3]; metabolite myo-inositol): 0.0000
Log2(fold change) nicotinamide mononucleotide ([3]; metabolite nicotinamide mononucleotide): 0.0000
Log2(fold change) nicotinate ([3]; metabolite nicotinate): 0.0117
Log2(fold change) ornithine ([3]; metabolite ornithine): 0.0000
Log2(fold change) orotate ([3]; metabolite orotate): 1.3653
Log2(fold change) orotidine-5'-phosphate ([3]; metabolite orotidine-5'-phosphate): 0.1863
Log2(fold change) oxaloacetate ([3]; metabolite oxaloacetate): 0.0000
Log2(fold change) p-aminobenzoate ([3]; metabolite p-aminobenzoate): 0.0000
Log2(fold change) p-hydroxybenzoate ([3]; metabolite p-hydroxybenzoate): 0.0000
Log2(fold change) pantothenate ([3]; metabolite pantothenate): 0.0065
Log2(fold change) phenylalanine ([3]; metabolite phenylalanine): -0.1381
Log2(fold change) phenylpyruvate ([3]; metabolite phenylpyruvate): 0.0000
Log2(fold change) phosphoenolpyruvate ([3]; metabolite phosphoenolpyruvate): -0.0480
Log2(fold change) prephenate ([3]; metabolite prephenate): 0.0000
Log2(fold change) proline ([3]; metabolite proline): -0.1946
Log2(fold change) pyridoxine ([3]; metabolite pyridoxine): 0.0000
Log2(fold change) pyruvate ([3]; metabolite pyruvate): -0.1903
Log2(fold change) riboflavin ([3]; metabolite riboflavin): -0.1484
Log2(fold change) ribose ([3]; metabolite ribose): 0.0000
Log2(fold change) ribose-phosphate ([3]; metabolite ribose-phosphate): 0.0000
Log2(fold change) ribulose-5-phosphate ([3]; metabolite ribulose-5-phosphate): -0.2217
Log2(fold change) serine ([3]; metabolite serine): 0.1164
Log2(fold change) sn-glycerol-3-phosphate ([3]; metabolite sn-glycerol-3-phosphate): 0.2423
Log2(fold change) succinate/Methylmalonic acid ([3]; metabolite succinate/Methylmalonic acid): 0.0338
Log2(fold change) succinyl-CoA/methylmalonyl-CoA ([3]; metabolite succinyl-CoA/methylmalonyl-CoA): 0.0865
Log2(fold change) taurine ([3]; metabolite taurine): 0.0000
Log2(fold change) thiamine ([3]; metabolite thiamine): 0.0000
Log2(fold change) threonine/homoserine ([3]; metabolite threonine/homoserine): -0.2212
Log2(fold change) thymidine ([3]; metabolite thymidine): 0.0000
Log2(fold changes) thymine ([3]; metabolite thymine, log2 fold change): 0.0000
Log2(fold changes) trehalose-6-Phosphate ([3]; metabolite trehalose-6-Phosphate, log2 fold change): 0.0000
Log2(fold changes) tryptophan ([3]; metabolite tryptophan, log2 fold change): -0.0286
Log2(fold changes) tyrosine ([3]; metabolite tyrosine, log2 fold change): 0.0383
Log2(fold changes) uridine ([3]; metabolite uridine, log2 fold change): 0.0000
